Measurements reported in patent US20260198493A1, “HYDRAZIDE COMPOUND AND AGRICULTURAL/HORTICULTURAL FUNGICIDE” (Nippon Soda Co., Ltd., priority 2022, published 2026).

How the values were obtained:
Colletotrichum acutatum = test: Fungicidal effect test against fungi causing apple anthracnose; conditions: 96 h, read-out: growth inhibition ratio
Botrytis cinerea [1] = format: cell-based; conditions: 120 h, 25 ppm by volume, Vogel medium, 20° C., five days, dark, read-out: growth inhibition ratio
Botrytis cinerea [2] = test: Control test of cucumber gray mold (sprayed young cucumber seedlings); format: in vivo; conditions: 96 h, four days after inoculation; for pest or weed control at 25 ppm: 25 ppm by mass spray; for pest or weed control at 125 ppm: 125 ppm by mass spray
Protocol: Then, the drug liquid was sprayed onto young cucumber seedlings cultivated in a nursery pot (variety “Jihai”-based, cotyledon stage), and then air-dried. […] They were left still in a moist room at 20° C. Four days after inoculation, leaves of the young cucumber seedlings were visually observed, and the control value was calculated from the lesion area ratio in accordance with the following equation. [formula]

Glomerella cingulata = test: Fungicidal effect test against fungi causing grape ripe rot disease; conditions: Colletotrichum gloeosporioides, 72 h, read-out: growth inhibition ratio
Venturia inaequalis = test: Control test of apple scab disease (sprayed young apple seedlings); format: in vivo; conditions: 125 ppm by mass spray, 12 to 14 days after inoculation
[3] = tested on: Erysiphe graminis f.sp.tritici; test: Control test of wheat powdery mildew disease (sprayed young wheat seedlings); format: in vivo; conditions: Blumeria graminis, 144 h, 125 ppm by mass spray, six days after inoculation
Fusarium graminearum = test: microbe, parasite or virus in culture; format: cell-based; conditions: 96 h, read-out: growth inhibition ratio

COC(=O)N(Cc1ccc(C)cc1Cl)NC(=O)c1c(C)cncc1Oc1cccc(C2CC2)c1 [b-178]
≥ 75%: inhibition of growth at 25 ppm (Colletotrichum acutatum) | inhibition of growth at 25 ppm (Botrytis cinerea [1]) | pest or weed control at 25 ppm (Botrytis cinerea [2]) | pest or weed control at 125 ppm (Botrytis cinerea [2]) | inhibition of growth at 25 ppm (Glomerella cingulata) | pest or weed control at 125 ppm (Venturia inaequalis) | pest or weed control at 125 ppm [3] | inhibition of growth at 25 ppm (Fusarium graminearum)

Cc1ccc(CN(NC(=O)c2cc(C)nnc2Oc2cccc(C3CC3)c2F)C(=O)OC2CC2)c(C)c1 [b-184, Cyclopropyl 2-(3-(3-cyclopropyl-2-fluorophenoxy)-6-methylpyridazine-4-carbonyl)-1-(2,4-dimethylbenzyl)hydrazine-1-carboxylate]
≥ 75%: inhibition of growth at 25 ppm (Colletotrichum acutatum) | inhibition of growth at 25 ppm (Botrytis cinerea [1]) | pest or weed control at 25 ppm (Botrytis cinerea [2]) | pest or weed control at 125 ppm (Botrytis cinerea [2]) | inhibition of growth at 25 ppm (Glomerella cingulata) | pest or weed control at 125 ppm (Venturia inaequalis) | pest or weed control at 125 ppm [3] | inhibition of growth at 25 ppm (Fusarium graminearum)

COC(=O)N(Cc1ccc(C)cc1C)NC(=O)c1ccncc1Oc1cccc(Cl)c1F [b-187]
≥ 75%: inhibition of growth at 25 ppm (Colletotrichum acutatum) | inhibition of growth at 25 ppm (Botrytis cinerea [1]) | pest or weed control at 25 ppm (Botrytis cinerea [2]) | pest or weed control at 125 ppm (Botrytis cinerea [2]) | inhibition of growth at 25 ppm (Glomerella cingulata) | pest or weed control at 125 ppm (Venturia inaequalis) | pest or weed control at 125 ppm [3] | inhibition of growth at 25 ppm (Fusarium graminearum)

COC(=O)N(Cc1ccc(C)cc1C)NC(=O)c1c(C)cnnc1Oc1cccc(Cl)c1F [b-191]
≥ 75%: inhibition of growth at 25 ppm (Colletotrichum acutatum) | inhibition of growth at 25 ppm (Botrytis cinerea [1]) | pest or weed control at 25 ppm (Botrytis cinerea [2]) | pest or weed control at 125 ppm (Botrytis cinerea [2]) | inhibition of growth at 25 ppm (Glomerella cingulata) | pest or weed control at 125 ppm (Venturia inaequalis) | pest or weed control at 125 ppm [3] | inhibition of growth at 25 ppm (Fusarium graminearum)

Cc1ccc(CN(NC(=O)c2ccncc2Oc2cccc(C3CC3)c2F)C(=O)OC2COC2)c(C)c1 [b-196]
≥ 75%: inhibition of growth at 25 ppm (Colletotrichum acutatum) | inhibition of growth at 25 ppm (Botrytis cinerea [1]) | pest or weed control at 25 ppm (Botrytis cinerea [2]) | pest or weed control at 125 ppm (Botrytis cinerea [2]) | inhibition of growth at 25 ppm (Glomerella cingulata) | pest or weed control at 125 ppm (Venturia inaequalis) | pest or weed control at 125 ppm [3] | inhibition of growth at 25 ppm (Fusarium graminearum)

COC(=O)N(Cc1ccc(C)cc1C)NC(=O)c1c(F)cncc1Oc1cccc(C2CC2)c1F [b-199]
≥ 75%: inhibition of growth at 25 ppm (Colletotrichum acutatum) | inhibition of growth at 25 ppm (Botrytis cinerea [1]) | pest or weed control at 25 ppm (Botrytis cinerea [2]) | pest or weed control at 125 ppm (Botrytis cinerea [2]) | inhibition of growth at 25 ppm (Glomerella cingulata) | pest or weed control at 125 ppm (Venturia inaequalis) | pest or weed control at 125 ppm [3] | inhibition of growth at 25 ppm (Fusarium graminearum)

COC(=O)N(Cc1ccc(OC)cc1C)NC(=O)c1c(F)cncc1Oc1cccc(Cl)c1F [b-202]
≥ 75%: inhibition of growth at 25 ppm (Colletotrichum acutatum) | inhibition of growth at 25 ppm (Botrytis cinerea [1]) | pest or weed control at 25 ppm (Botrytis cinerea [2]) | pest or weed control at 125 ppm (Botrytis cinerea [2]) | inhibition of growth at 25 ppm (Glomerella cingulata) | pest or weed control at 125 ppm (Venturia inaequalis) | pest or weed control at 125 ppm [3] | inhibition of growth at 25 ppm (Fusarium graminearum)

COC(=O)N(Cc1ccc(C)cc1C)NC(=O)c1cc(C(F)(F)F)ncc1Oc1cccc(C2CC2)c1F [b-204]
≥ 75%: inhibition of growth at 25 ppm (Colletotrichum acutatum) | inhibition of growth at 25 ppm (Botrytis cinerea [1]) | pest or weed control at 25 ppm (Botrytis cinerea [2]) | pest or weed control at 125 ppm (Botrytis cinerea [2]) | inhibition of growth at 25 ppm (Glomerella cingulata) | pest or weed control at 125 ppm (Venturia inaequalis) | pest or weed control at 125 ppm [3] | inhibition of growth at 25 ppm (Fusarium graminearum)

COC(=O)N(Cc1ccc(C)cc1C)NC(=O)c1c(OC)cncc1Oc1cccc(C2CC2)c1F [b-208]
≥ 75%: inhibition of growth at 25 ppm (Colletotrichum acutatum) | inhibition of growth at 25 ppm (Botrytis cinerea [1]) | pest or weed control at 25 ppm (Botrytis cinerea [2]) | pest or weed control at 125 ppm (Botrytis cinerea [2]) | inhibition of growth at 25 ppm (Glomerella cingulata) | pest or weed control at 125 ppm (Venturia inaequalis) | pest or weed control at 125 ppm [3] | inhibition of growth at 25 ppm (Fusarium graminearum)

CCc1cncc(Oc2cccc(C3CC3)c2F)c1C(=O)NN(Cc1ccc(C)cc1C)C(=O)OC [b-212]
≥ 75%: inhibition of growth at 25 ppm (Colletotrichum acutatum) | inhibition of growth at 25 ppm (Botrytis cinerea [1]) | pest or weed control at 25 ppm (Botrytis cinerea [2]) | pest or weed control at 125 ppm (Botrytis cinerea [2]) | inhibition of growth at 25 ppm (Glomerella cingulata) | pest or weed control at 125 ppm (Venturia inaequalis) | pest or weed control at 125 ppm [3] | inhibition of growth at 25 ppm (Fusarium graminearum)

COC(=O)N(Cc1ccc(C)cc1C)NC(=O)c1c(Oc2cccc(C3CC3)c2)cnnc1OC(C)C [b-223]
≥ 75%: inhibition of growth at 25 ppm (Colletotrichum acutatum) | inhibition of growth at 25 ppm (Botrytis cinerea [1]) | pest or weed control at 25 ppm (Botrytis cinerea [2]) | pest or weed control at 125 ppm (Botrytis cinerea [2]) | inhibition of growth at 25 ppm (Glomerella cingulata) | pest or weed control at 125 ppm (Venturia inaequalis) | pest or weed control at 125 ppm [3] | inhibition of growth at 25 ppm (Fusarium graminearum)

COC(=O)N(Cc1ccc(C)cc1C)NC(=O)c1c(Oc2cccc(Cl)c2F)nnc(Cl)c1C [b-227]
≥ 75%: inhibition of growth at 25 ppm (Colletotrichum acutatum) | inhibition of growth at 25 ppm (Botrytis cinerea [1]) | pest or weed control at 25 ppm (Botrytis cinerea [2]) | pest or weed control at 125 ppm (Botrytis cinerea [2]) | inhibition of growth at 25 ppm (Glomerella cingulata) | pest or weed control at 125 ppm (Venturia inaequalis) | pest or weed control at 125 ppm [3] | inhibition of growth at 25 ppm (Fusarium graminearum)

COC(=O)N(Cc1ccc(C)cc1C)NC(=O)c1c(C)cnnc1Oc1cccc(C2CC2)c1F [b-228]
≥ 75%: inhibition of growth at 25 ppm (Colletotrichum acutatum) | inhibition of growth at 25 ppm (Botrytis cinerea [1]) | pest or weed control at 25 ppm (Botrytis cinerea [2]) | pest or weed control at 125 ppm (Botrytis cinerea [2]) | inhibition of growth at 25 ppm (Glomerella cingulata) | pest or weed control at 125 ppm (Venturia inaequalis) | pest or weed control at 125 ppm [3] | inhibition of growth at 25 ppm (Fusarium graminearum)

COC(=O)N(Cc1ccc(OC)cc1C)NC(=O)c1c(C)cncc1Oc1cccc(C2CC2)c1 [b-229]
≥ 75%: inhibition of growth at 25 ppm (Colletotrichum acutatum) | inhibition of growth at 25 ppm (Botrytis cinerea [1]) | pest or weed control at 25 ppm (Botrytis cinerea [2]) | pest or weed control at 125 ppm (Botrytis cinerea [2]) | inhibition of growth at 25 ppm (Glomerella cingulata) | pest or weed control at 125 ppm (Venturia inaequalis) | pest or weed control at 125 ppm [3] | inhibition of growth at 25 ppm (Fusarium graminearum)

CCc1cncc(Oc2cccc(C3CC3)c2F)c1C(=O)NN(Cc1ccc(OC)cc1C)C(=O)OC [b-230]
≥ 75%: inhibition of growth at 25 ppm (Colletotrichum acutatum) | inhibition of growth at 25 ppm (Botrytis cinerea [1]) | pest or weed control at 25 ppm (Botrytis cinerea [2]) | pest or weed control at 125 ppm (Botrytis cinerea [2]) | inhibition of growth at 25 ppm (Glomerella cingulata) | pest or weed control at 125 ppm (Venturia inaequalis) | pest or weed control at 125 ppm [3] | inhibition of growth at 25 ppm (Fusarium graminearum)

COC(=O)N(Cc1ccc(C)cc1C)NC(=O)c1c(Cl)cncc1Oc1cccc(Cl)c1F [b-231]
≥ 75%: inhibition of growth at 25 ppm (Colletotrichum acutatum) | inhibition of growth at 25 ppm (Botrytis cinerea [1]) | pest or weed control at 25 ppm (Botrytis cinerea [2]) | pest or weed control at 125 ppm (Botrytis cinerea [2]) | inhibition of growth at 25 ppm (Glomerella cingulata) | pest or weed control at 125 ppm (Venturia inaequalis) | pest or weed control at 125 ppm [3] | inhibition of growth at 25 ppm (Fusarium graminearum)

Cc1ccc(CN(NC(=O)c2cc(C)nnc2Oc2cccc(C3CC3)c2F)C(=O)OC2COC2)c(C)c1 [b-232]
≥ 75%: inhibition of growth at 25 ppm (Colletotrichum acutatum) | inhibition of growth at 25 ppm (Botrytis cinerea [1]) | pest or weed control at 25 ppm (Botrytis cinerea [2]) | pest or weed control at 125 ppm (Botrytis cinerea [2]) | inhibition of growth at 25 ppm (Glomerella cingulata) | pest or weed control at 125 ppm (Venturia inaequalis) | pest or weed control at 125 ppm [3] | inhibition of growth at 25 ppm (Fusarium graminearum)
